The subject of test [1] is calcium level in the serum in vitamin D-deficient low-calcium rats. The test can be described thus: effect of inhibiting dissolution of calcium from bones: calcium level in serum in vitamin D-deficient low-calcium rats (intravenous). Conditions: 500 P moles/100 g body weight, one intravenous administration, next day. In kind it is in vivo, Wistar rats (male). The text has this: Vitamin D has both an action of calcium deposition on bones and an action of liberating calcium from the bones, and promotes bone formation when the balance between these actions is shifted toward the former. Accordingly, a vitamin D derivative which inhibits dissolution of calcium from bones can be expected to have a very strong bone-forming action. In the present test, calcium in the feed was limited to a low level, and under conditions in which no calcium absorption from the intestinal tract occurred, the activity to increase the calcium level in the serum was examined. This activity is considered to reflect calcium dissolution from the bones.
The following test was conducted in accordance with the method of C. Kaneko et al. [C. Kaneko, S. Yamada, A. Sugimoto, M. Katuta, and S. Sasaki: Steroids, 23, 75 (1974)].
Three week old Wistar rats (male) were purchased from Japan Charles River Co., and were fed for 19 days with a feed being deficient in vitamin D and containing low calcium (0.02%) to prepare vitamin D-deficient hypocalcemia rats. An ethanol solution of an assay compound was intravenously administered once to the rats. On the next day, blood was drawn from the animals, and the calcium level in the serum was measured by atomic absorptiometry (using a double beam atomic absorption photometer made by Shimazu Seisakusho; Model AA-650).

In test [2] the target is T1, 1,25-dihydroxyvitamin D3 receptor in the intestines of chicken embryo (Gallus gallus, UniProt O42392).
T1 sequence (O42392 1-451): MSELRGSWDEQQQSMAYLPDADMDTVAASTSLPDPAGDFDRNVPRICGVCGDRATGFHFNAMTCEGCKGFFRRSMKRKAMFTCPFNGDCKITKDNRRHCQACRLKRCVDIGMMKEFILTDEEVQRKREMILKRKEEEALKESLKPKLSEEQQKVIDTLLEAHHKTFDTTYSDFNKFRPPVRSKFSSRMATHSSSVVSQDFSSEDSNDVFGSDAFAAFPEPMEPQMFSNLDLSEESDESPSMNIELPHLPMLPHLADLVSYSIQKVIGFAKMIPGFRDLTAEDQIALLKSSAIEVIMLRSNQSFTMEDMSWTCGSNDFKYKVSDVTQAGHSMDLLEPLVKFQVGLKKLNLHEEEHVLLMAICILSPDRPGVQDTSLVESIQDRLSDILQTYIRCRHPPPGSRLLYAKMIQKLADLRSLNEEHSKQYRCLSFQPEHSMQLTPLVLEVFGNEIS
The test can be described thus: receptor binding ability (in vitro), 1,25-dihydroxyvitamin D3 receptor, charcoal method.
Method: The mixture was incubated at 0° C. for 3 hours.
The free assay compound and the assay compound bound to the receptor were separated by the charcoal method.

The subject of test [3] is calcium level in serum in vitamin D-deficient rats. The test can be described thus: activity of increasing calcium level in serum in vitamin D-deficient rats (oral). In kind it is in vivo, Wistar rats (male). Conditions: for Percent increase in serum Ca level (control 100%) / Calcium in the serum: po, once a day over 3 days; for Calcium in the serum: control (ethanol) 8.60. The text has this:
To confirm it in an in vivo (animal) test, however, its action of increasing the blood calcium level in vitamin D-deficient rats was examined.
Wistar rats (male, three weeks old) purchased from Japan Charles River Co. were fed 3 to 4 weeks with a vitamin D-deficient diet containing calcium (0.02%) and phosphorus (0.99%) to prepare vitamin D-deficient rats. The compound of this invention or 1,25-dihydroxy-26,27-dimethylvitamin D3 was orally administered to these animals once a day over 3 days. On the fourth day, blood was drawn from the animals, and calcium in the serum was measured by atomic absorptiometry.
As soon as the administration began, the feed was changed to one which was vitamin D-deficient but contained calcium in a normal amount (0.56%).

Test [4] relates to calcium level in the serum. Conditions: as shown in Japanese Laid-Open Patent Publication No. 44860/1986; cited from earlier work.

pIC50: −log10 of the molar value.

The pIC50 is the negative decadic logarithm of the IC50, by convention in mol/L.

With `C=C1/C(=C\C=C2/CCC[C@]3(C)[C@@H]([C@H](C)CCCC(F)(F)C(C)(C)O)CC[C@@H]23)C[C@@H](O)C[C@@H]1O` [Compound of the invention, 1α,25-dihydroxy-24a,24a-difluoro-24-homovitamin D3], the “Percent increase in serum Ca level (control 100%)” value (from here on “Percent increase … (control 100%)”) was found to be 94.2% in test [1] (control 100%), 114% in test [3] (600 P moles/rat) and 119% in test [3] (1,200 P moles/rat). In addition, the “Calcium in the serum” value in test [1] (control (ethanol) 4.47, * significant at P <0.05 vs control) was 4.21 mg/dL; in test [3] (600 P moles/rat), 9.80 mg/dL; in test [3] (1,200 P moles/rat), 10.20 mg/dL. The pIC50 in test [2] is 7.30. Besides, the “activity to increase the calcium level in the serum compared with 1,25-dihydroxyvitamin D3 (in words)” value in test [3] (inferred via 1,25-dihydroxy-26,27-dimethylvitamin D3 comparator) is given as “stronger than that of 1,25-dihydroxyvitamin D3”. Further, the “action of increasing the calcium level in the serum (in words)” value in test [3] (vitamin D-deficient rats, oral) is “shows an action of increasing the calcium level in the serum”.
With `C=C1/C(=C\C=C2/CCC[C@]3(C)[C@@H]([C@H](C)CCCC(O)(CC)CC)CC[C@@H]23)C[C@@H](O)C[C@@H]1O` [1,25-Dihydroxy-26,27-dimethyl-vitamin D3, 1,25-dihydroxy-26,27-dimethylvitamin D3, reference compound], in test [3] (600 P moles/rat), the “Percent increase … (control 100%)” value amounted to 105% and the “Calcium in the serum” value amounted to 9.00 mg/dL. For the same compound, in test [3] (1,200 P moles/rat), the “Percent increase … (control 100%)” value is 112% and the “Calcium in the serum” value was 9.60 mg/dL. In addition, the “action of increasing the calcium level in the serum compared with 1α-hydroxyvitamin D3 or 1,25-dihydroxyvitamin D3 (in words)” value in test [4] was “stronger action of increasing the calcium level in the serum than 1α-hydroxyvitamin D3 or 1,25-dihydroxyvitamin D3”.

Source of the values: patent US4832875A, “Vitamin D3 derivative” (Taisho Pharmaceutical Co., Ltd., priority 1985, dated 1989).
